Reference: PMC6550523, “De Novo Emergence of Peptides That Confer Antibiotic Resistance” (mBio, 2019)
Read-outs that look alike come from different tables or passages of the source.

Tests used:
[1] = system: E. coli membrane potential; experiment: Membrane potential assay with DiBAC4(3); format: cell-based, Escherichia coli; settings: 100 μM CCCP, 30 min, room temperature; positive control
Method: Bacteria were grown overnight in MHB supplemented with 15 mg/liter chloramphenicol at 37°C. The following day all cultures were diluted 1:100 in MHB supplemented with 15 mg/liter chloramphenicol and grown to an OD600 of approximately 0.3 (time point 0). At the target OD600, IPTG was added to each culture to a final concentration of 1 mM, and cells were incubated for another 60 min to allow expression of proteins (time point 1). At both time points, approximately 10^6 cells were transferred to 1 ml PBS with 10 mg/liter DiBAC4(3) (D8189; Sigma-Aldrich) with or without 100 μM carbonyl cyanide 3-chlorophenylhydrazone (CCCP; Sigma-Aldrich) and incubated for 30 min at room temperature in the dark. Fluorescence was measured with a MACSQuant VYB (Miltenyi Biotec) using the GFP/FITC (green fluorescent protein/fluorescein isothiocyanate) channel and a threshold of 15,000 gated cells. The raw data were analyzed and visualized with FlowJo (BD Bioscience).

E. coli = experiment: Toxicity of peptides when expressed; format: cell-based, Escherichia coli; settings: expressed in E. coli from pBAD vector
[2] = system: Escherichia coli K-12 strain BW25113; experiment: MIC determination (Etest) in strains expressing the peptides; format: cell-based; settings: for Increased aminoglycoside resistance on overexpression of endogenous E. coli peptides: TisB from a pBAD promoter, arabinose 0.0125 to 0.2%, at viable expression levels
Method: Most strains used in this study were derived from Escherichia coli K-12 BW25113 (designated E. coli throughout the text) and are listed in Table S1 in the supplemental material. If not indicated otherwise, Muller Hinton broth (MHB) (Becton, Dickinson) was used for growth in liquid cultures and Muller Hinton agar (MHA; MHB supplemented with 15 g/liter agar) for growth on plates. To maintain the plasmid pRD2 or pBAD18, the growth media were supplemented with 100 mg/liter ampicillin or 15 mg/liter chloramphenicol, respectively. Induction of expression was performed in the presence of 1 mM IPTG (pRD2) or 0.2% arabinose (pBAD18). For counterselection of sacB, no-salt lysogeny agar plates (10 g/liter tryptone, 5 g/liter yeast extract, 15 g/liter agar, and 50 g/liter sucrose) were used. Recovery after transformation was done in SOC medium (20 g/liter tryptone, 5 g/liter yeast extract, 0.5 g/liter NaCl, 10 mM MgCl2, […], and 4 g/liter glucose). For washing and dilution of cells, phosphate-buffered saline (PBS; 8 g/liter NaCl, 0.2 g/liter KCl, 1.44 g/liter Na2HPO4, and 0.24 g/liter KH2PO4) was used.
MICs were determined using Etest strips (bioMérieux). Overnight cultures of the strains of interest were diluted 1:20 in PBS and spread on an MHA plate containing 100 mg/liter ampicillin and 1 mM IPTG where necessary with a cotton swab. Etest strips were applied in the middle of the plates and incubated at 37°C overnight. MIC values were scored after 20 h of incubation. Colistin MICs were determined using microdilution. For this, bacteria were grown on MHA with 100 mg/liter ampicillin, and 1 to 2 colonies were dissolved in 1 ml PBS to approximately 0.5 McFarland. The cell suspension was diluted 1:100 in Muller Hinton 2 broth (cation adjusted), and 50 μl was mixed with 50 μl Muller Hinton 2 broth containing 0.4% arabinose, 30 mg/liter chloramphenicol, and a 2-fold dilution series of colistin. The assay was performed in round-bottomed 96-well plates at 37°C overnight in a stationary position. The MIC was determined as the concentration where no growth could be observed and is based on a minimum of two biological replicates. If the determined values of the replicates were not identical, a third replicate was performed.
The site saturation mutagenesis was performed with GeneArt (ThermoFisher) based on the sequence of Arp1, where each position in the wild-type sequence was replaced by the amino acids lysine (K), glutamic acid (E), proline (P), tryptophan (W), and serine (S). All variants were subcloned into our modified expression vector, pBAD18-RND, using the AgeI/HindIII cloning sites, transformed into E. coli, and delivered as a total pool glycerol stock. […] The plasmid variants were determined by Sanger sequencing (Eurofins, Germany). […]

[3] = system: bovine cytochrome c oxidase (CytcO) reconstituted into proteoliposomes; format: biochemical
Method: When ionophores (valinomycin, a K^+ ionophore, and/or FCCP, a protonophore similar to CCCP) are added, this gradient is partly or fully dissipated, and the so-called uncoupled rate is reached. […] Thus, we determined the RCRs after adding the Arp-1 and Arp1-L11K peptides, and as positive controls we added valinomycin and FCCP in addition to the peptides (Fig. 4B and Fig. S4C).
(A) CytcO reduces O2 to H2O, using electrons from reduced cytochrome (cyt.) c and protons from inside the liposomes. In addition, protons are pumped and a proton electrochemical gradient (positive outside) across the membrane is established. Valinomycin, a K^+ ionophore, can dissipate the charge component and FCCP, a protonophore, both components of this gradient. (B) A typical oxygen consumption experiment; the baseline with only ascorbate, TMPD, and cyt. c was first measured. Proteoliposomes then were added, initiating oxygen consumption by CytcO and build-up of a membrane potential. The coupled rate is the slope after liposome addition subtracting the baseline. Peptides (Arp1 or L11K), valinomycin, and FCCP were added, in this order, and the rates measured. RCRs were determined by dividing the different rates by the initial coupled rate. […]
CytcO activity was measured using a Clark-type oxygen electrode (Hansatech) at 25°C. […] Oxygen consumption rates and RCRs were measured essentially as described in reference [43].

carbonyl cyanide m-chlorophenyl hydrazine [CCCP]
Membrane potential, DiBAC4(3) fluorescence [1]: clear shift to higher fluorescence

TisB: endogenous E. coli K-12 29-mer toxin of a toxin-antitoxin system (MNLVDIAILILKLIVAALQLLDAVLKYLK; UniProt A5A627 1-29, looked up)
Toxicity when expressed (E. coli): lethal | Increased aminoglycoside resistance on overexpression of endogenous E. coli peptides [2]: no increased resistance

IbsC: endogenous E. coli toxin peptide similar to Arp1-3 in size and hydrophobicity (MMRLVIILIVLLLISFSAY; UniProt C1P615 1-19, looked up)
Increased aminoglycoside resistance on overexpression of endogenous E. coli peptides [2]: no increased resistance

LdrD: endogenous E. coli toxin peptide similar to Arp1-3 in size and hydrophobicity (MTFAELGMAFWHDLAAPVIAGILASMIVNWLNKRK; UniProt Q6BF25 1-35, looked up)
Increased aminoglycoside resistance on overexpression of endogenous E. coli peptides [2]: no increased resistance

CC(C)[C@@H]1NC(=O)[C@H](C)OC(=O)[C@@H](C(C)C)NC(=O)[C@@H](C(C)C)OC(=O)[C@H](C(C)C)NC(=O)[C@H](C)OC(=O)[C@@H](C(C)C)NC(=O)[C@@H](C(C)C)OC(=O)[C@H](C(C)C)NC(=O)[C@H](C)OC(=O)[C@@H](C(C)C)NC(=O)[C@@H](C(C)C)OC1=O [Valinomycin, valinomycin]
Effect of ionophore added in addition to Arp1 peptide ([3]; valinomycin 6 μM, then FCCP 21 μM, positive controls): further rate increase

NC[C@H]1O[C@H](O[C@H]2[C@H](O)[C@@H](O[C@H]3O[C@H](CO)[C@@H](O)[C@H](N)[C@H]3O)[C@H](N)C[C@@H]2N)[C@H](O)[C@@H](O)[C@@H]1O [kanamycin]
Kanamycin MIC of the empty vector control strain ([2]; E. coli BW25113 with empty vector, Etest, 37°C, 20 h): 0.75 µg/mL

N#CC(C#N)=NNc1ccc(OC(F)(F)F)cc1 [FCCP]
Effect of ionophore added in addition to Arp1 peptide [3]: fully collapsed the gradient
